Measurements: ChEMBL document CHEMBL3227983, “N-Acetimidoyl- and N-formimidoylthienamycin derivatives: antipseudomonal beta-lactam antibiotics” (J Med Chem, 1979)

Columns and labels:
[1] = system: Pseudomonas aeruginosa; assay: Antibacterial activity against penicillin-sensitive Pseudomonas aeruginosa MB2835 at 25 ug/disk; type: functional; conditions: read-out: DIZ
[2] = system: Escherichia coli; assay: Antibacterial activity against penicillin-resistant Escherichia coli MB2964 at 25 ug/disk; type: functional; conditions: read-out: DIZ
[3] = system: Pseudomonas aeruginosa; assay: Antibacterial activity against penicillin-resistant Pseudomonas aeruginosa MB3350 at 25 ug/disk; type: functional; conditions: read-out: DIZ
[4] = Drug degradation in crystalline form at 10 mg/ml; type: physicochemical; conditions: read-out: Drug degradation
[5] = system: Escherichia coli; assay: Antibacterial activity against penicillin-sensitive Escherichia coli MB2482 at 25 ug/disk; type: functional; conditions: read-out: DIZ
[6] = system: Staphylococcus aureus; assay: Antibacterial activity against penicillin-resistant Staphylococcus aureus MB2314 at 25 ug/disk; type: functional; conditions: read-out: DIZ
[7] = Stability of the compound in amorphous form in 1 M PO4 assessed as time at which 90% of initial UV-absorbance remains at 60 mg/ml at pH 7 at 23 degC; type: physicochemical; conditions: buffer
[8] = Stability of the compound in amorphous form assessed as compound remaining after 5 months at 60 mg/ml at 23 degC in presence of 0.1 equiv of NaHCO3; type: physicochemical; conditions: read-out: Stability
[9] = system: Enterobacter cloacae; assay: Antibacterial activity against penicillin-resistant Enterobacter cloacae MB2646 at 25 ug/disk; type: functional; conditions: read-out: DIZ
[10] = system: Staphylococcus aureus; assay: Antibacterial activity against penicillin-sensitive Staphylococcus aureus MB2985 at 25 ug/disk; type: functional; conditions: read-out: DIZ
[11] = system: Enterobacter cloacae; assay: Antibacterial activity against penicillin-sensitive Enterobacter cloacae MB2647 at 25 ug/disk; type: functional; conditions: read-out: DIZ
[12] = Stability of the compound in amorphous form in deionized water assessed as time at which 90% of initial UV-absorbance remains at 60 mg/ml at 23 degC; type: physicochemical; conditions: buffer
[13] = Stability of the compound in crystalline form in deionized water assessed as time at which 90% of initial UV-absorbance remains at 10 mg/ml at 23 degC; type: physicochemical; conditions: buffer
[14] = Stability of the compound in amorphous form assessed as compound remaining after 6 months at 60 mg/ml at 23 degC in presence of 0.1 equiv of NaHCO3; type: physicochemical; conditions: read-out: Stability
[15] = Stability of the compound in crystalline form assessed as compound remaining after 6 months at 10 mg/ml at 23 degC in presence of 0.1 equiv of NaHCO3; type: physicochemical; conditions: read-out: Stability
[16] = Stability of the compound in amorphous form assessed as compound remaining after 1 month at 60 mg/ml at 23 degC in presence of 0.1 equiv of NaHCO3; type: physicochemical; conditions: read-out: Stability

Row | Compound | zone of inhibition at 25 µg/disc [1] | zone of inhibition at 25 µg/disc [2] | zone of inhibition at 25 µg/disc [3] | degraded at 10 mg/ml [4] | zone of inhibition at 25 µg/disc [5] | zone of inhibition at 25 µg/disc [6] | Time [7] | remaining at 3652.5 h, 60 mg/ml [8] | zone of inhibition at 25 µg/disc [9] | zone of inhibition at 25 µg/disc [10] | zone of inhibition at 25 µg/disc [11] | Time [12] | Time [13] | remaining at 4383 h, 60 mg/ml [14] | remaining at 4383 h, 10 mg/ml [15] | remaining at 730.5 h, 60 mg/ml [16]
1 | CC(=N)NCCSC1=C(C(=O)O)N2C(=O)[C@H]([C@@H](C)O)[C@H]2C1 | 28 mm | 29.5 mm | 28 mm | < 1% | 28 mm | 40 mm | 0.5 h | 100% | 27 mm | 38.5 mm | 27 mm | 5 h | – | – | – | –
2 | C[C@@H](O)[C@H]1C(=O)N2C(C(=O)O)=C(SCCN=CN)C[C@H]12 [IMIPENEM ANHYDROUS] | 29 mm | 29.5 mm | 29 mm | – | 28.5 mm | 40.5 mm | 0.5 h | – | 27.5 mm | 40 mm | 27 mm | 2.5 h | 17 h | 80% | 100% | –
3 | C[C@@H](O)[C@H]1C(=O)N2C(C(=O)O)=C(SCCN)C[C@H]12 [THIENAMYCIN] | 26 mm | 29 mm | 26 mm | – | 28.5 mm | 41 mm | 0.5 h | – | 27 mm | 40 mm | 25.5 mm | 0.5 h | – | – | – | 80%
